Test results: ChEMBL document CHEMBL1201862, “PubChem BioAssay data set” (2004)
Calls of active or inactive are those of the source.

Columns and labels:
[1] = Trypanosoma cruzi growth suppression in host cells – NIH3T3 host cells, beta-gal luminescence, confirmation (AID 2044); assay type: functional, cell-based;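 note: intracellular parasites grown in NIH/3T3 mouse fibroblasts as host cells; luminescent beta-galactosidase reporter signal from transgenic T. cruzi replicating inside host cells; inhibitors lower the luminescence signal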
[2] = NIH3T3 cell viability loss – ATP luminescence, mouse fibroblasts, counter-screen, dose response (AID 2010); assay type: functional, cell-based;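 note: cells exposed to compound for about 90 hours before reading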
[3] = target: T1, Heat shock factor protein 1 (Mus musculus, UniProt P38532); test: enhancement of HSF1-driven luciferase signal – cell-based, NIH3T3, luminescence, dose retest, confirmation (AID 435004); assay type: functional;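 note: stress induced by proteasome inhibitor MG132 added 30 min after compound; luciferase reporter driven by HSF1 response element in NIH3T3 cells; actives raise luminescence as potentiators of the MG132 stress response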
T1 sequence (P38532 whole entry): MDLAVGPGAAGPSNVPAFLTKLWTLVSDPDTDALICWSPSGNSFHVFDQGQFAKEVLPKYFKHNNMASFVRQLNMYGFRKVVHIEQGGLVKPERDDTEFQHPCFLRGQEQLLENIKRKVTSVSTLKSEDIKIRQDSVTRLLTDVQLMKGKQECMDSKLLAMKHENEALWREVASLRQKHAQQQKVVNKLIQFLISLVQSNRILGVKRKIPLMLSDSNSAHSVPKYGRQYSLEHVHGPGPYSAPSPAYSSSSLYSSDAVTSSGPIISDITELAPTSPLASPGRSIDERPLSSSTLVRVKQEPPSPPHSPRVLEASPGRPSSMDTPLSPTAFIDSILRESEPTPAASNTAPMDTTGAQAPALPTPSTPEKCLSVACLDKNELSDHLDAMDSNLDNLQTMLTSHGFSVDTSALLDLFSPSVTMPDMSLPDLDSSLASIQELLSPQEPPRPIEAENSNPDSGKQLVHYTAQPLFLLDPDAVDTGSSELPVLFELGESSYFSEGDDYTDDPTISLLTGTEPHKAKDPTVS

[4] = target: T2, Zinc finger protein mex-5 (Caenorhabditis elegans, UniProt Q9XUB2); test: potency of MEX-5 RNA-binding blockers – biochemical, C. elegans, fluorescence polarization, dose response (AID 1960)
T2 sequence (Q9XUB2 whole entry): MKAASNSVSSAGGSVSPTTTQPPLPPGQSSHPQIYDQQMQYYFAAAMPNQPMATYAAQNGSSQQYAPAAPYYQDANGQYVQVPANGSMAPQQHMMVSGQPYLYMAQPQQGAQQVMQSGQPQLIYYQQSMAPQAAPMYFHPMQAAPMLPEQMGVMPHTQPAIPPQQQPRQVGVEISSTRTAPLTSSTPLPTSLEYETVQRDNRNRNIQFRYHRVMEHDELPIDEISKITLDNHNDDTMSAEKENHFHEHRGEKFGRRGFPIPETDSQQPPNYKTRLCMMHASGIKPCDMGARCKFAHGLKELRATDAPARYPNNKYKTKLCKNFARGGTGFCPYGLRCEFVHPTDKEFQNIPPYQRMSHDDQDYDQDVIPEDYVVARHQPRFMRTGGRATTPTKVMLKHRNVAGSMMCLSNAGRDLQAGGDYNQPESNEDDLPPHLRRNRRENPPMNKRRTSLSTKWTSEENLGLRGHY

[5] = target: T3, RNA-binding protein pos-1 (Caenorhabditis elegans, UniProt G5EF15); test: disruptors of C. elegans POS-1 RNA interaction – biochemical, fluorescence polarization, dose response (AID 1964);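 note: purified POS-1 fused to maltose binding protein made in E. coli; potency of compounds blocking POS-1 binding to fluorescent RNA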
T3 sequence (G5EF15 whole entry): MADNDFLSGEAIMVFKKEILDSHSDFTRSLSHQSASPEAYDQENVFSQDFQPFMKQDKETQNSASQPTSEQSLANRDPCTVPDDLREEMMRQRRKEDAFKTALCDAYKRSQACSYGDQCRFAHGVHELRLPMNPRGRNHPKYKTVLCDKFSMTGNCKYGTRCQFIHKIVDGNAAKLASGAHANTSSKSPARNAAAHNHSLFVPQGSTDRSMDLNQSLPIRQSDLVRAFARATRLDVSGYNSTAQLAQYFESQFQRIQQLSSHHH

[6] = target: Cytochrome P450 2C19 (Homo sapiens, UniProt P33261); test: Cytochrome panel assay with activity outcomes. Panel member name: p450-cyp2c19 Compounds with AC50 equal or less than 10 uM are considered active; assay type: functional
Chain of Cytochrome P450 2C19 (P33261 whole entry): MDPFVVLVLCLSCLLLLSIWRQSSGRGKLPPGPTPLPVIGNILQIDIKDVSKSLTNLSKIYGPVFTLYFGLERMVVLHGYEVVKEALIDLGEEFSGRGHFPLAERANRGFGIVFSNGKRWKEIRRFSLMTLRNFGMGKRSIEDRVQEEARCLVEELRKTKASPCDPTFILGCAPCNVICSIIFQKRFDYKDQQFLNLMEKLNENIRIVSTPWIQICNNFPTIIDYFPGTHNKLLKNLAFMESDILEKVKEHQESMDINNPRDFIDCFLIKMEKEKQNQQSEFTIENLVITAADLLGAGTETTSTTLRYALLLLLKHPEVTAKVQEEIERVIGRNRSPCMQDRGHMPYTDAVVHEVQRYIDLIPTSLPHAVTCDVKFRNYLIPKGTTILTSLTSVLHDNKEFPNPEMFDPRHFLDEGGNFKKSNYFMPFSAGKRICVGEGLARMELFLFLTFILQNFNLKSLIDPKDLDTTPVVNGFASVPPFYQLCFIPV

[7] = target: T4, Corticotropin-releasing factor receptor 2/Corticotropin-releasing factor-binding protein (Homo sapiens, UniProt P24387+Q13324); test: activators of CRF receptor 2 with binding protein – uHTS hits, confirmation (AID 602473); assay type: functional; settings: read-out: EC50_Mean
T4 sequence (Q13324 whole entry): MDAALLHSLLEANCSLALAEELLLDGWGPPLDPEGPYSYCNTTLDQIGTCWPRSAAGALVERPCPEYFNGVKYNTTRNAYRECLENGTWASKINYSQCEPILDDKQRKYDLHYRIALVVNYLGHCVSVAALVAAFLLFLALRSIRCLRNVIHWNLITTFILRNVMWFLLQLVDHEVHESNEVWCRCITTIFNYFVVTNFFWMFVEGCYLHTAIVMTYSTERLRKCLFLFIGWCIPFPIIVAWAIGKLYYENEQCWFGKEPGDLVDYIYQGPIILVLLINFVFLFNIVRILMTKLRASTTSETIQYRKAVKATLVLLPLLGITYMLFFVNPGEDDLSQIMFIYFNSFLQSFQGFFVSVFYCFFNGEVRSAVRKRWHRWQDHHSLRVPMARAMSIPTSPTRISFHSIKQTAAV
T4 sequence (P24387 whole entry): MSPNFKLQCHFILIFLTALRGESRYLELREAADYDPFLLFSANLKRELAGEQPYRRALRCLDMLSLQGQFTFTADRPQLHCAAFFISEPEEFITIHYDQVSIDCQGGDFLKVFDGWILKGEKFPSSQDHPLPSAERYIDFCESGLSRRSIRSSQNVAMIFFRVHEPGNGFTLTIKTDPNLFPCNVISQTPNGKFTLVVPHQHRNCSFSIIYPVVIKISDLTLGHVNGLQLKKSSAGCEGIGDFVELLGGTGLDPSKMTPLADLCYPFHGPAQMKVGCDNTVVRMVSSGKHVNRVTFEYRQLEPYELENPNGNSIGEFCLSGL

[8] = test system: Streptococcus; test: GAS UMAA2166 growth inhibition – luminescence, BacTiterGlo, counter-screen for streptokinase expression inhibitor project, dose response (AID 1915); assay type: functional, organism-based;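 note: potency for reduction of bacterial viability or growth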
[9] = test system: Streptococcus sp. 'group A'; test: Streptococcus pyogenes SK(-)GAS viability under kanamycin – luminescence, BacTiterGlo, confirmation, counter-screen for streptokinase expression inhibitor project, dose response (AID 1900); assay type: functional, organism-based

O=C(CN1CCN(c2cccc(Cl)c2)CC1)Nc1ccc([N+](=O)[O-])cc1C(=O)Nc1ccccc1F
EC50 [1]: 1.01 µM (active) | EC50 [2]: > 60 µM (not active)

CC(C)(C)NC(=O)c1ccc2c(c1)N(CC(=O)N1CCCCC1)C(=O)C(C)(C)O2
EC50 [3]: > 260 µM (inactive)

O=C(NC1C2CC3CC(C2)CC1C3)C1CC1 (configuration not stated)
EC50 [3]: > 260 µM (inactive)

Cc1cc(C)cc(N2C(=O)NC(=O)/C(=C\c3cc(C)n(C)c3C)C2=O)c1
EC50 [4]: 23.5 µM (active) | EC50 [5]: 6.75 µM (active)

CC1(OC(=O)CCc2ccccc2)C(=O)C=C2C=C(C3CC3)OC=C2C1=O (configuration not stated)
EC50 [4]: 30.4 µM (active) | EC50 [5]: 36.6 µM (active)

Cn1c(CN2CCCC2)nc2cc(NC(=O)C3CCCCC3)ccc21
AC50 [6]: inconclusive

O=C(NC1CCCC1)C(c1ccncc1)N(Cc1ccccc1)C(=O)c1ccc(-c2ccccc2)[nH]1 (configuration not stated)
EC50 [1]: 0.253 µM (active) | EC50 [2]: > 60 µM (not active)

Oc1nc2cc3c(cc2cc1C(c1nnnn1C1CCCC1)N1CCCc2ccccc21)OCCO3 (configuration not stated)
EC50 [7]: > 53 µM (inactive)

Clc1ccc(CCNc2nc3ccccc3n3nnnc23)cc1
EC50 [3]: > 260 µM (inactive)

Cc1nc(NCCc2c[nH]cn2)c2oc3ccccc3c2n1
EC50 [1]: 0.305 µM (active) | EC50 [2]: > 60 µM (not active)

CCCC(Oc1ccc(Br)cc1)c1nc2c3cc(OC)c(OC)cc3nc(S)n2n1 (configuration not stated)
EC50 [8]: 3.62 µM (active) | EC50 [9]: 0.253 µM (active)

O=C(/C=C/c1ccc(Cl)cc1Cl)N(Cc1ccccc1)C1CCS(=O)(=O)C1 (configuration not stated)
EC50 [3]: > 260 µM (inactive)

COC(=O)CCN(C(=O)c1cc([N+](=O)[O-])cc([N+](=O)[O-])c1)c1ccccn1
EC50 [1]: 1.38 µM (active) | EC50 [2]: > 30 µM (not active)

CC1=CC(C)(C)N(C(=O)CSc2nnc(N)s2)c2ccccc21
EC50 [7]: > 53 µM (inactive)

CCCCc1nnc(NC(=O)C(C)Sc2nc(C)cc(O)n2)s1 (configuration not stated)
EC50 [3]: > 260 µM (inactive)

Cc1ccccc1NC(=O)C1CCCN(C(=O)NCc2ccccc2)C1 (configuration not stated)
EC50 [3]: > 260 µM (inactive)

CCOC(=O)C1CCCN(C2CCN(Cc3nc(-c4ccccc4)no3)CC2)C1 (configuration not stated)
EC50 [1]: 0.524 µM (active) | EC50 [2]: > 60 µM (not active)

CCSC1=N/C(=C\c2ccccc2)C(=O)N1
EC50 [4]: > 300 µM (not active) | EC50 [5]: > 300 µM (not active)

O=C1C2ON(c3ccccc3)C(c3ccncc3)C2C(=O)N1c1ccccc1 (configuration not stated)
AC50 ([6]; read-out: AC50): 0.0708 µM (inconclusive)

Cc1ccc(OCCOCCN2CCCC2)c(Br)c1
EC50 [1]: 0.96 µM (active) | EC50 [2]: > 30 µM (not active)

CN1CCN(NC(=O)/C=C/c2ccc(Br)cc2)CC1
EC50 [3]: 32.3 µM (active)

Cc1cc(/C=C2\C(=O)NC(=O)N(c3ccc(F)cc3)C2=O)c(C)n1-c1cccc(C(=O)O)c1
EC50 [4]: > 300 µM (not active) | EC50 [5]: > 300 µM (not active)

COc1ccc(S(=O)(=O)N(C)CC(=O)N2CCC(C(N)=O)CC2)cc1Cl
EC50 [3]: > 260 µM (inactive)

O=C(CCN1C(=O)c2ccccc2C1=O)C1=NN[C@@H]2C(=O)N(c3ccc(F)cc3)C(=O)[C@H]12
EC50 [3]: > 260 µM (inactive)

Cc1cccc(NC(=O)C(C)N2C(=O)C3C4CC(C(Br)C4Br)C3C2=O)c1 (configuration not stated)
EC50 [7]: 9.65 µM (active)

COc1ccc(-c2nn(-c3ccccc3)cc2CNC(=O)c2cccc([N+](=O)[O-])c2)cc1
EC50 [1]: 1.75 µM (active) | EC50 [2]: > 60 µM (not active)

Cc1ccsc1C(=O)C1CCCN(Cc2cnc(N(C)C)s2)C1 (configuration not stated)
EC50 [1]: 0.203 µM (active) | EC50 [2]: > 60 µM (not active)

COc1cc2oc3ccc(C#Cc4ccc(N)cc4)cc3c(=O)c2cc1OC
EC50 [8]: 1.75 µM (active) | EC50 [9]: 1.18 µM (active)

Cc1ccnc(SCC(=O)c2ccc(Br)cc2)c1C#N
EC50 [1]: 0.932 µM (active) | EC50 [2]: > 30 µM (not active)

Cc1cc(C)cc(NC(=O)CN(C)S(=O)(=O)c2c[nH]cn2)c1
EC50 [3]: > 260 µM (inactive)

COCCN1Cc2cccc(C(=O)Nc3cc(OC)ccc3OC)c2C1=O
EC50 [7]: > 53 µM (inactive)

S=C1NC2(CCS1)Oc1ccccc1C1CC(c3ccccc3)=NN12 (configuration not stated)
EC50 [4]: > 300 µM (not active) | EC50 [5]: > 300 µM (not active)

CN(C)c1ncc2nc(-c3ccccc3)c(=O)n(C3CC3)c2n1
AC50 ([6]; read-out: AC50): 39.8 µM (inconclusive)

CCN(Cc1ccccc1)S(=O)(=O)c1cc(C(=O)NCC2CCCCC2)ccc1OC
EC50 [3]: > 260 µM (inactive)

COC(=O)c1cc(OC)c(OC)cc1N=C(S)N1CCCC1
EC50 [3]: > 260 µM (inactive)

COc1ccc(NC(=O)C2CC(=O)N=C(Nc3cccc(C)c3)N2)cc1 (configuration not stated)
EC50 [3]: > 260 µM (inactive)

CCCCOC(=O)CCc1c(C)n[nH]c1C
EC50 [3]: > 260 µM (inactive)

O=C(NNc1cccc(Cl)n1)Nc1ccccc1Cl
AC50 ([6]; read-out: AC50): 6.31 µM (inconclusive)

CCCc1nnc(SCC(=O)N2CCCCC2C)n1CC1CCCO1 (configuration not stated)
AC50 ([6]; read-out: AC50): 25.1 µM (inconclusive)

COc1ccc2cc(/C(C)=N/NC(=S)Nc3cc(S(=O)(=O)N4CCOCC4)ccc3N3CCOCC3)ccc2c1
EC50 [1]: 0.572 µM (active) | EC50 [2]: > 60 µM (not active)

COc1ccc(C2C(C#N)=C(/N=C/N3CCN(C)CC3)OC3=C2C(=O)CC(C)(C)C3)cc1 (configuration not stated)
EC50 [4]: > 300 µM (not active) | EC50 [5]: > 300 µM (not active)

CC1(C)S[C@@H]2[C@H](NC(=O)Cc3ccccc3)C(=O)N2[C@H]1C(=O)O [PENICILLIN G]
EC50 [8]: < 0.06 µM (active) | EC50 [9]: < 0.06 µM (active)

CNNCc1ccc(C(=O)NC(C)C)cc1 [PROCARBAZINE]
AC50 ([6]; read-out: AC50): 5.01 µM (inconclusive)
